US20240124434A1, “ATF6 INHIBITORS AND USES THEREOF” (Altos Labs, Inc., priority 2018, published 2024)
≈ marks a conversion by molar mass, not a printed value.

Legend:
[1] = In vitro microsomal stability, rat liver microsomes; assay type: in vitro ADME; conditions: for microsomal CLint at […], 1 µM: intrinsic clearance, read-out: Clint @ rLM; for Rem. @ rLM (%): remaining fraction after 30 min, 1 μM compound, 0.5 mg/mL rat liver microsomes, 1 mM NADPH
Procedure: (§1) Compounds were incubated at a final concentration of 1 μM with 0.5 mg/mL human liver microsomes (hLM) (#HMMCPL; Thermo), mouse liver microsomes (mLM) (#MSMCPL; Thermo) or rat liver microsomes (rLM) (#RTMCPL; Thermo) and 1 mM reduced dihydronicotinamide-adenine dinucleotide phosphate (NADPH) (#N1630; Sigma) in 100 mM phosphate buffer (pH 7.4) at 37° C. The reactions were terminated at 0, 5, 15 and 30 min by the addition of cold acetonitrile containing 50 ng/mL propranolol as an internal standard. […] Verapamil hydrochloride (#V4369 Aldrich) was used as a positive control in all studies.

[2] = test system: ATF6; test: ERSE ATF6-luciferase reporter assay (thapsigargin-induced ER stress); assay type: cell-based, human; conditions: Homo sapiens, U2OS, thapsigargin-induced ER stress, U2-OS ATF6 luc reporter cells; for inhibition at 1 µM: 8 h, read-out: Inh. ATF6-Luc @ 1 μM [%], 1 μM test compound, 8 hr; for IC50: read-out: IC50 ATF6-Luc reporter [μM], dose-response 30 μM to 1 nM
[3] = molecular target: CYP2C9 (Homo sapiens (Human), UniProt P11712); test: CYP inhibition in human liver microsomes; conditions: read-out: CYP-2C9; human liver microsomes; probe substrate diclofenac
Procedure: (§2) CYP inhibition by test compounds in human liver microsomes (HLM) for seven major CYP450 isoforms CYP1A2, CYP2C9, CYP2D6, CYP2B6, CYP2C8, CYP2C19 and CYP3A4 were assessed. […] 50 μM phenacetin, 2 μM midazolam, 5 μM diclofenac, 50 μM mephenytoin, 80 μM bupropion, and 5 μM dextromethorphan were used as probe substrates of CYP1A2, CYP3A4, CYP2C9, CYP2C19, CYP2B6, and CYP2D6, respectively. The incubation times were 20 min for […], CYP2D6, CYP2C9, CYP2B6, and CYP2C8; 40 min for CYP2C19; and 10 min for CYP 3A4. Following incubations, the reactions were terminated with acetonitrile containing internal standard. The samples were centrifuged and the supernatants were analyzed for the formation of metabolites (1-hydroxymidazolam (CYP3A4), 4-hydroxydiclofenac (CYP2C9), 4-hydroxymephenytoin (CYP2C19) and dextrorphan (CYP2D6), hydroxybupropion (CYP2B6), acetaminophen (CYP1A2), desethylamodiaquine (CYP2C8)) by LC/MS/MS.

[4] = molecular target: CYP2C19 (Homo sapiens (Human), UniProt P33261); test: CYP inhibition in human liver microsomes; conditions: read-out: CYP-2C19; human liver microsomes; probe substrate mephenytoin
Procedure: as §2

[5] = molecular target: CYP3A4 (Homo sapiens (Human), UniProt P08684); test: CYP inhibition in human liver microsomes; conditions: read-out: CYP-3A4; human liver microsomes; probe substrate midazolam
Procedure: as §2

[6] = molecular target: CYP2D6 (Homo sapiens (Human), UniProt P10635); test: CYP inhibition in human liver microsomes; conditions: read-out: CYP-2D6; human liver microsomes; probe substrate dextromethorphan
Procedure: as §2

[7] = molecular target: CYP2C8 (Homo sapiens (Human), UniProt P10632); test: CYP inhibition in human liver microsomes; conditions: read-out: CYP-2C8, metabolite desethylamodiaquine
Procedure: as §2

[8] = molecular target: CYP2B6 (Homo sapiens (Human), UniProt P20813); test: CYP inhibition in human liver microsomes; conditions: read-out: CYP-2B6; human liver microsomes; probe substrate bupropion
Procedure: as §2

[9] = Kinetic solubility (nephelometry); assay type: physicochemical; conditions: aqueous buffer, kinetic from dmso stock; PBS pH 7.4, 1% DMSO, 1 hour at 37° C., light scattering at 625 nm
Procedure: Concentration (μM) was then calculated by segmental regression. Amiodarone (#A8423 Aldrich) was used as positive control.

[10] = In vitro microsomal stability, human liver microsomes; assay type: in vitro ADME; conditions: for microsomal CLint at […], 1 µM: intrinsic clearance, read-out: Clint @ hLM; for Rem. @ hLM (%): remaining fraction after 30 min, 1 μM compound, 0.5 mg/mL human liver microsomes, 1 mM NADPH
Procedure: as §1

[11] = In vitro microsomal stability, mouse liver microsomes; assay type: in vitro ADME; conditions: for half-life at 1 μM / half-life at […], 1 µM: mouse, read-out: T1/2 @ mLM; for half-life at 1 μM / microsomal CLint at […], 1 µM / half-life at […], 1 µM: mouse liver microsomes, pH 7.4; for microsomal CLint at […], 1 µM: intrinsic clearance, read-out: Clint @ mLM; for Rem. @ mLM (%): remaining fraction after 30 min, 1 μM compound, 0.5 mg/mL mouse liver microsomes, 1 mM NADPH
Procedure: as §1

[12] = rat, rat liver microsomes, pH 7.4, read-out: T1/2 @ rLM
[13] = human, human liver microsomes, pH 7.4, read-out: T1/2 @ hLM

Chain of CYP2C9 (P11712 whole entry, canonical isoform): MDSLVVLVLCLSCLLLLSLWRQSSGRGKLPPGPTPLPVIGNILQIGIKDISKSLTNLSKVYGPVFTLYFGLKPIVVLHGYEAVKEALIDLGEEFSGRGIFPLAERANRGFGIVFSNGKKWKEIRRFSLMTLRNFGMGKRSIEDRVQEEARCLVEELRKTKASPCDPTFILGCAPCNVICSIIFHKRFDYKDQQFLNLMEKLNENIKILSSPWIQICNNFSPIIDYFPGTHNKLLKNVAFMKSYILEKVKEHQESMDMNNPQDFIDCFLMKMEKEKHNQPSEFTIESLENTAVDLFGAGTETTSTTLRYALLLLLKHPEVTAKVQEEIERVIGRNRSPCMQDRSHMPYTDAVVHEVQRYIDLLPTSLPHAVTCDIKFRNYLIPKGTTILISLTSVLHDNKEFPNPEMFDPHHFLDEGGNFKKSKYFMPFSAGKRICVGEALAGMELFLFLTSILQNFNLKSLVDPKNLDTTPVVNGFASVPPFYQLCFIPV
Chain of CYP3A4 (P08684 whole entry): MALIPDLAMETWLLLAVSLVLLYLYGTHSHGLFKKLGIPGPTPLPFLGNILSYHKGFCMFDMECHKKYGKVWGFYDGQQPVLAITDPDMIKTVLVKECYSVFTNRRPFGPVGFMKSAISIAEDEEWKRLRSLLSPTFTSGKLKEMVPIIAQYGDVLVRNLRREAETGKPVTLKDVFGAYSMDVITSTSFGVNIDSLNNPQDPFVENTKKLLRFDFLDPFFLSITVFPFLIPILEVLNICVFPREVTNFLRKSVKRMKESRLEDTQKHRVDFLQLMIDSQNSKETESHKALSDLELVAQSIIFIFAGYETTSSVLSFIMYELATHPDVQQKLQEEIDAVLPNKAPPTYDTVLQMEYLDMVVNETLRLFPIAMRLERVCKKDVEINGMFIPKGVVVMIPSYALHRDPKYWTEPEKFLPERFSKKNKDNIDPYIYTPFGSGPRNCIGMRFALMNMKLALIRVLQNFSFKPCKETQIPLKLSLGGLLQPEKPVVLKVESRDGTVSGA
Chain of CYP2B6 (P20813 whole entry): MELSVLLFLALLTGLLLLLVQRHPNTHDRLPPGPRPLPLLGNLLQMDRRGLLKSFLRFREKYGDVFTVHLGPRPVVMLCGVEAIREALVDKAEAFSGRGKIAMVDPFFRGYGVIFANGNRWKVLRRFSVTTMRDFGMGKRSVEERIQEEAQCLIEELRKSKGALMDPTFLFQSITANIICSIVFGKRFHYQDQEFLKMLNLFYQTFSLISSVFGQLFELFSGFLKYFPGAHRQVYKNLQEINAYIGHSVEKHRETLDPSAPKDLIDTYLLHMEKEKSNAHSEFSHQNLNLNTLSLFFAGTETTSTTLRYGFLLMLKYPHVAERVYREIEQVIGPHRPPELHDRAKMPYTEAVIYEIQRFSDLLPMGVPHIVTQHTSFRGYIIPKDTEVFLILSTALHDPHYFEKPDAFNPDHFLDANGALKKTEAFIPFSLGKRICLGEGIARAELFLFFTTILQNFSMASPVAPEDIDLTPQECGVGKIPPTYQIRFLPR
Chain of CYP2D6 (P10635 whole entry): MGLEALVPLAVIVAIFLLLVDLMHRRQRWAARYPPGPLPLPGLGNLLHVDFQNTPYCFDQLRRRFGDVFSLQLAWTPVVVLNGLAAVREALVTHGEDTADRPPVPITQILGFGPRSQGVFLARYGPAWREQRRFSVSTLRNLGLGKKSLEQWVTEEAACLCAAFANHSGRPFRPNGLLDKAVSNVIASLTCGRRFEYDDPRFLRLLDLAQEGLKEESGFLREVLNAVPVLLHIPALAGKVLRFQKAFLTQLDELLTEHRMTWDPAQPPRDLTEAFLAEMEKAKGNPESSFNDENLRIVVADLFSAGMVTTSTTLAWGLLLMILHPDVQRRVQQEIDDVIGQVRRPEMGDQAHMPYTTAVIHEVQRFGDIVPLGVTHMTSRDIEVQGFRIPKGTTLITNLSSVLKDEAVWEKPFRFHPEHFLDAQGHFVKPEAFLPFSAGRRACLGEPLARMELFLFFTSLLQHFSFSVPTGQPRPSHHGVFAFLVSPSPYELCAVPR
Chain of CYP2C19 (P33261 whole entry): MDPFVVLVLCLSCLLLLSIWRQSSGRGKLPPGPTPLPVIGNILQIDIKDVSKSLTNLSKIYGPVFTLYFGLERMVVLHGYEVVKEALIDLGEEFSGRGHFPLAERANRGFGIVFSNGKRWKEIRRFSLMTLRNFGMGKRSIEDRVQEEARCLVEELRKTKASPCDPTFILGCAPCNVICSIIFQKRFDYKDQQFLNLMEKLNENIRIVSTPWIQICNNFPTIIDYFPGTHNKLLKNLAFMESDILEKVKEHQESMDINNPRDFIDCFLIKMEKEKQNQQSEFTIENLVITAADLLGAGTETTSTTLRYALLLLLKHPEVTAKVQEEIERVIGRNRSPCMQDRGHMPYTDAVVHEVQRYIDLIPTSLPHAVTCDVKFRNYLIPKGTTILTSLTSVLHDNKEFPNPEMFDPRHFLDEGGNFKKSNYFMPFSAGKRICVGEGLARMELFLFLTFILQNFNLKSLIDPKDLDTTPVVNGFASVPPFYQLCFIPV
Chain of CYP2C8 (P10632 whole entry): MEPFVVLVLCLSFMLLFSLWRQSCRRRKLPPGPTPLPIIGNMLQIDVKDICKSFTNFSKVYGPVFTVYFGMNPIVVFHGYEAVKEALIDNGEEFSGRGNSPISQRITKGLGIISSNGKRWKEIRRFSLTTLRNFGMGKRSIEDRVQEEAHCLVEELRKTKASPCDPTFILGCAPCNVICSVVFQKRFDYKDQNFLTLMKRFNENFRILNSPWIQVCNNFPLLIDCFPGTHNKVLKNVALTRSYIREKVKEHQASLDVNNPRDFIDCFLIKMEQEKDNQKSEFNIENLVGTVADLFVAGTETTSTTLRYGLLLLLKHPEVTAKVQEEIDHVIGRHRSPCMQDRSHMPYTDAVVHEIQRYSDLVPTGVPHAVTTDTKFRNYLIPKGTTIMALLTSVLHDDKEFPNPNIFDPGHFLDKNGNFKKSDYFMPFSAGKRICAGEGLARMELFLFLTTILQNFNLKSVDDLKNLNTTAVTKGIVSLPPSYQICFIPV

microsomal CLint at […], 1 µM ([1]; pH 7.4, rat liver microsomes) [µL/min/mg] | half-life at 1 μM [1, 12] [h] | Rem. @ rLM (%) [1] [%] | IC50 [2] [µM] | IC50 [3] [µM] | IC50 [4] [µM] | IC50 [5] [µM] | IC50 [6] [µM] | IC50 [7] [µM] | IC50 [8] [µM] | solubility kinetic at 1 h [9] [µM] | half-life at […], 1 µM [10, 13] [h] | microsomal CLint at […], 1 µM ([10]; pH 7.4, human liver microsomes) [µL/min/mg] | Rem. @ hLM (%) [10] [%] | half-life at 1 μM [11] [h] | microsomal CLint at […], 1 µM [11] [µL/min/mg] | Rem. @ mLM (%) [11] [%] | half-life at […], 1 µM [11] [h] | Structure (SMILES) | inhibition at 1 µM [2] [%] | also measured
20.2 | 1.15 | 69.8 | < 1 | > 50 | > 50 | > 50 | > 50 | > 50 | > 50 | 2.92 (≈ 1.41 µg/mL) | 1.27 | 18.2 | 74.1 | 0.667 | 34.7 | 51.1 | – | Cc1c(NC(=O)c2cc(-c3ccco3)on2)cnn1Cc1ccc(C(F)(F)F)cc1C(F)(F)F [Compound 93, N-(1-(2,4-bis(trifluoromethyl)benzyl)-5-methyl-1H-pyrazol-4-yl)-5-(furan-2-yl)isoxazole-3-carboxamide] | > 50 | –
28.3 | 0.817 | 60.9 | 1 to 10 | 2.5 | 8.8 | > 50 | 32 | 1 | 4.8 | 2.34 (≈ 1.19 µg/mL) | – | 39.2 | 49.2 | – | 85.2 | 29.2 | 0.272 | Cc1nn([C@H](C)c2ccc(C(F)(F)F)cc2C(F)(F)F)cc1NC(=O)c1cc(-c2ccccn2)on1 [Compound 99, (R)—N-(1-(1-(2,4-bis(trifluoromethyl)phenyl)ethyl)-3-methyl-1H-pyrazol-4-yl)-5-(pyridin-2-yl)isoxazole-3-carboxamide] | 25 to 50 | half-life at 1 μM [10, 13]: 0.59 h
23.9 | 0.968 | 64.5 | < 1 | > 45.9 | 2.9 | > 50 | 35.5 | 30.5 | 23.6 | 3.51 (≈ 1.74 µg/mL) | 2.22 | 10.4 | 84.4 | 0.873 | 26.4 | 62.5 | – | C[C@H](c1ccc(C(F)(F)F)cc1C(F)(F)F)n1cc(NC(=O)c2cn(-c3ccccn3)nn2)cn1 [Compound 121, (R)—N-(1-(1-(2,4-bis(trifluoromethyl)phenyl)ethyl)-1H-pyrazol-4-yl)-1-(pyridine-2-yl)-1H-1,2,3-triazole-4-carboxamide] | 25 to 50 | –
7.2 | – | 86.4 | < 1 | > 50 | > 50 | > 50 | > 50 | > 50 | > 50 | 28.1 (≈ 14.4 µg/mL) | 2.32 | 10 | 84.4 | – | 10.9 | 82.6 | 2.12 | C[C@H](c1ccc(C(F)(F)F)cc1C(F)(F)F)n1cc(NC(=O)c2nnc(-c3cnccn3)s2)cn1 [Compound 152, (R)—N-(1-(1-(2,4-bis(trifluoromethyl)phenyl)ethyl)-1H-pyrazol-4-yl)-5-(pyrazin-2-yl)-1,3,4-thiadiazole-2-carboxamide] | > 50 | half-life at […], 1 µM [1, 12]: 3.2 h
